Reference: ChEMBL document CHEMBL3045758, “Quantitative Structure-Activity Relationships of Fungicidal N-Phenylformamidoximes” (J Pestic Sci, 1992)

Tests used:
[1] = 1-octanol/water distribution coefficient, log P of the compound; type: physicochemical
Phaseolus vulgaris = assay: Phytotoxicity against Phaseolus vulgaris (kidney bean) assessed as necrosis of leaf at 100 ppm after 7 days in greenhouse conditions; type: organism-based; details: in vivo, 168 h
Botrytis cinerea [2] = assay: Fungicidal activity against benzimidazole-resistant Botryotinia fuckeliana after 48 hr by poisoned food technique; type: functional, organism-based; details: Botrytis cinerea, 48 h; read-out: pEC50 (converted)
Botrytis cinerea [3] = assay: Fungicidal activity against benzimidazole-resistant Botryotinia fuckeliana infected kidney bean leaf at 100 ppm after 7 days in greenhouse conditions by detached leaf test; type: functional
Botrytis cinerea [4] = assay: Fungicidal activity against benzimidazole-resistant Botryotinia fuckeliana at 6.2 ppm after 48 hr by poisoned food technique; type: functional
Botrytis cinerea [5] = assay: Fungicidal activity against benzimidazole-resistant Botryotinia fuckeliana at 200 ppm after 48 hr by poisoned food technique; type: functional
Botrytis cinerea [6] = assay: Fungicidal activity against benzimidazole-resistant Botryotinia fuckeliana at 25 ppm after 48 hr by poisoned food technique; type: functional

Structure (SMILES) | logP [1] | Activity (Phaseolus vulgaris) | EC50 (Botrytis cinerea [2]) [nM] | Activity (Botrytis cinerea [3]) [%] | Activity (Botrytis cinerea [4]) [%] | Activity (Botrytis cinerea [5]) [%] | Activity (Botrytis cinerea [6]) [%]
C#CCc1c(Cl)cc(N/C=N/OC(C)C)cc1Cl | 3.9 | Non-toxic | 33.1 | – | – | – | –
C#CCc1c(Cl)cc(N/C=N/OCC=C)cc1Cl | 3.7 | Non-toxic | 67.6 | – | – | – | –
C#CCO/N=C/Nc1cc(Cl)c(CC#C)c(Cl)c1 | 3.3 | Non-toxic | 33.9 | – | – | – | –
C#CCc1c(Cl)cc(N/C=N/OCCCC)cc1Cl | 4.4 | Non-toxic | 316 | – | – | – | –
C#CCc1c(Cl)cc(N/C=N/OC(C)CC)cc1Cl (centres undefined) | 4.2 | Non-toxic | 158 | – | – | – | –
C#CCc1c(Cl)cc(N/C=N/OCC#N)cc1Cl | 3 | Non-toxic | 33.9 | – | – | – | –
C#CCc1c(Cl)cc(N/C=N/OCOC)cc1Cl | 3.2 | Non-toxic | 33.1 | – | – | – | –
C#CCc1c(Cl)cc(N/C=N/OCSC)cc1Cl | 3.6 | Non-toxic | 31.6 | – | – | – | –
C#CCc1c(Cl)cc(N/C=N/OCOCC)cc1Cl | 3.5 | Non-toxic | 63.1 | – | – | – | –
C#CCc1c(Cl)cc(N/C=N/OCC(=O)OCC)cc1Cl | 3.6 | Non-toxic | 1450 | – | – | – | –
C#CCc1c(Cl)cc(N/C=N/OCCCl)cc1Cl | 3.7 | Non-toxic | 30.9 | – | – | – | –
C#CCc1c(Cl)cc(N/C=N/OCCOCC)cc1Cl | 3.7 | Non-toxic | 60.3 | – | – | – | –
C#CCc1c(Cl)cc(N/C=N/OC/C=C\Cl)cc1Cl | 3.9 | Non-toxic | 60.3 | – | – | – | –
C#CCc1c(Cl)cc(N/C=N/OC/C=C/Cl)cc1Cl | 3.9 | Non-toxic | 302 | – | – | – | –
C#CCc1c(Cl)cc(N/C=N/OCc2ccccc2)cc1Cl | 4.2 | Non-toxic | 2880 | – | – | – | –
C#CCc1c(Cl)cc(N/C=N/Oc2ccccc2)cc1Cl | 4.4 | Non-toxic | 295 | – | – | – | –
C#CCc1c(Cl)cc(N/C=N/Oc2ccc(C)cc2)cc1Cl | 4.8 | Non-toxic | 851 | – | – | – | –
CCO/N=C/Nc1ccc(OCC)c(OCC)c1 | – | Non-toxic | – | 50 | 26 | 100 | 70
CCO/N=C/Nc1cc(Cl)c(OCC)c(Cl)c1OCC | – | Non-toxic | – | <25 | <25 | 50 | <25
CCO/N=C/Nc1cc(Cl)c(F)c(Cl)c1 | 4 | <= 10% | 794 | – | – | – | –
CCO/N=C/Nc1cc(Cl)c(CC)c(Cl)c1 | 4.8 | Non-toxic | 389 | – | – | – | –
CCCCc1c(Cl)cc(N/C=N/OCC)cc1Cl | 5.6 | Non-toxic | 1740 | – | – | – | –
CCO/N=C/Nc1cc(Cl)c(SCC)c(Cl)c1 | 4.6 | Non-toxic | 170 | – | – | – | –
CCO/N=C/Nc1cc(Cl)c(SSCC)c(Cl)c1 | 5 | Non-toxic | 617 | – | – | – | –
CCO/N=C/Nc1cc(Cl)c([S+]([O-])CC)c(Cl)c1 (centres undefined) | 2.9 | Non-toxic | 162000 | – | – | – | –
CCO/N=C/Nc1cc(Cl)c(S(=O)(=O)CC)c(Cl)c1 | 2.8 | <= 10% | 30900 | – | – | – | –
CCO/N=C/Nc1cc(Cl)c(O)c(Cl)c1 | 2.8 | Non-toxic | 794 | – | – | – | –
CCO/N=C/Nc1cc(Cl)c(OC)c(Cl)c1 | 3.7 | Non-toxic | 191 | – | – | – | –
CCCOc1c(Cl)cc(N/C=N/OCC)cc1Cl | 4.6 | Non-toxic | 174 | – | – | – | –
CCO/N=C/Nc1cc(Cl)c(OC(C)C)c(Cl)c1 | 4.4 | <= 10% | 6920 | – | – | – | –
